Measured values published in patent US9066965B1, “Purified limonin glucoside for prevention and treatment of chronic diseases” (The United States of America, as represented by the …, priority 2012, dated 2015).

What was measured:
[1] = test system: complement fraction 3 (C3); test: Serum C3 concentration (Integra 400 Plus); assay type: in vivo, human
Description: Plasma concentrations of epidermal growth factor (EGF), interleukin-13 (IL-13), interleukin-1 receptor antagonist (IL-1Ra), and tumor necrosis factor α (TNF α) were analyzed in EDTA plasma on a Sector Imager 2400 instrument using a multiplex kits from MSD (Meso-Scale Discovery, Gaithersburg, Md.). Concentrations of C reactive protein (CRP), and complement 3 and 4 (C3, C4) were analyzed in serum by using an Integra 400 Plus Chemistry Analyzer, (Roche Diagnostics Corp., Indianapolis, Ind.). Serum amyloid A (SAA), soluble intracellular adhesion molecule-1 (sICAM-1), and soluble vascular cell adhesion molecule-1 (sVCAM-1) were tested in serum on a Sector Imager 2400 instrument using a multiplex kit from MSD (Meso-Scale Discovery, Gaithersburg, Md.).
(§1) Results are presented as means±SEM.

[2] = Rules Based Medicine human multi-analyte panel (MAP 1.6), plasma; assay type: in vivo; parameters: Epidermal growth factor: unit not given here
Description: Plasma samples prepared from blood collected in EDTA-containing tubes were stored at −80° C. until tested. The samples were thawed at room temperature, vortexed, spun at 13,000×g for 5 minutes for clarification and 100 uL aliquots were removed for MAP analysis into a master microtiter plate. Using automated pipetting, an aliquot of each sample was introduced into one of the capture microsphere multiplexes of the Human MAP 1.6. This MAP comprised of 89 antigens that included markers for oxidative stress, inflammation, immune status, T2DM, CVD, blood clotting, cancer, liver and kidney functions. All plasma samples were tested in duplicate. The mixture of sample and capture microspheres were thoroughly mixed and incubated at room temperature for 1 hour. Multiplexed cocktails of biotinylated, reporter antibodies for each multiplex were then added robotically and after thorough mixing, were incubated for an additional hour at room temperature. Multiplexes were developed using an excess of streptavidin-phycoerythrin solution which was thoroughly mixed into each multiplex and incubated for 1 hour at room temperature. The volume of each multiplexed reaction was reduced by vacuum filtration and the volume increased by dilution into matrix buffer for analysis. Analysis was performed in a Luminex 100 instrument and the resulting data stream was interpreted using proprietary data analysis software developed at Rules-Based Medicine. For each multiplex, both calibrators and controls were included on each microtiter plate. 8-point calibrators were run in the first and last column of each plate and 3-level controls were included in duplicate. Testing results were determined first for the high, medium and low controls for each multiplex to ensure proper assay performance. Unknown values for each of the analytes localized in a specific multiplex were determined using 4 and 5 parameter, weighted and non-weighted curve fitting algorithms included in the data analysis package. The intra-sample coefficient of variance (CV) for all antigens with concentrations above the lowest detectable dose (LDD) was less than 20%, and was less than 10% for more than 50% of the antigens tested.
as §1

Complement 3 = test: Plasma complement 3 in MAP 1.6; assay type: in vivo, human
Description: Plasma samples prepared from blood collected in EDTA-containing tubes were stored at −80° C. until tested. The samples were thawed at room temperature, vortexed, spun at 13,000×g for 5 minutes for clarification and 100 uL aliquots were removed for MAP analysis into a master microtiter plate. Using automated pipetting, an aliquot of each sample was introduced into one of the capture microsphere multiplexes of the Human MAP 1.6. This MAP comprised of 89 antigens that included markers for oxidative stress, inflammation, immune status, T2DM, CVD, blood clotting, cancer, liver and kidney functions. All plasma samples were tested in duplicate. The mixture of sample and capture microspheres were thoroughly mixed and incubated at room temperature for 1 hour. Multiplexed cocktails of biotinylated, reporter antibodies for each multiplex were then added robotically and after thorough mixing, were incubated for an additional hour at room temperature. […] Testing results were determined first for the high, medium and low controls for each multiplex to ensure proper assay performance. Unknown values for each of the analytes localized in a specific multiplex were determined using 4 and 5 parameter, weighted and non-weighted curve fitting algorithms included in the data analysis package. […]

[3] = Complete blood cell count (hematological parameters); assay type: in vivo, human; conditions: End LG, 500 mg/d, 56 days, n = 10, mean ± SEM
[4] = End LG, 500 mg/d, 56 days, n = 10, mean ± SEM

SMILES: CC1(C)O[C@H]2CC(=O)OC[C@]23[C@H]2CC[C@@](C)([C@@H](O[C@@H]4O[C@H](CO)[C@@H](O)[C@H](O)[C@H]4O)c4ccoc4)[C@@]4(O[C@@H]4C(=O)O)[C@]2(C)C(=O)C[C@@H]13 [LG, limonin glucoside]
- C3 ([1]; serum, End LG, 500 mg/d, 56 days, n = 10, mean ± SEM): 1.18 ± 0.05 mg/mL
- decrease of serum C3 concentration ([1]; vs end of placebo treatment, Integra 400 Plus, p=0.055): 4.8%
- Adiponectin [2, 4]: 3.19 ± 0.70 µg/mL
- Alpha-1 Antitrypsin [2, 4]: 2.19 ± 0.10 mg/mL
- Alpha-2 Macroglobulin [2, 4]: 0.79 ± 0.06 mg/mL
- Alpha-Fetoprotein [2, 4]: 2.35 ± 0.19 ng/mL
- Apolipoprotein A1 [2, 4]: 0.30 ± 0.01 mg/mL
- Apolipoprotein CIII [2, 4]: 111.60 ± 12.92 µg/mL
- Apolipoprotein H [2, 4]: 257.10 ± 19.26 µg/mL
- Apolipoprotein a [2, 4]: 110.78 ± 57.76 µg/mL
- Beta-2 Microglobulin [2, 4]: 1.46 ± 0.14 µg/mL
- Brain-Derived Neurotrophic Factor [2, 4]: 2.88 ± 0.71 ng/mL
- C Reactive Protein [2, 4]: 1.77 ± 0.26 µg/mL
- CD 40 [2, 4]: 0.76 ± 0.06 ng/mL
- CD 40 Ligand [2, 4]: 0.74 ± 0.27 ng/mL
- Carcinoembryonic Antigen [2, 4]: 1.49 ± 0.36 ng/mL
- Creatine Kinase-MB [2, 4]: 0.30 ± 0.07 ng/mL
- EN-RAGE [2, 4]: 3.45 ± 0.99 ng/mL
- Eotaxin-1 [2, 4]: 71.37 ± 14.78 pg/mL
- Epidermal growth factor [2, 4]: 251.67 ± 48.22
- Epithelial derived-neutrophil-activating protein [2, 4]: 1.68 ± 0.41 ng/mL
- Factor VII [2, 4]: 548.70 ± 64.71 ng/mL
- Ferritin [2, 4]: 137.76 ± 59.13 ng/mL
- Fibrinogen [2, 4]: 4.81 ± 0.29 mg/mL
- Fibroblast growth factor-basic [2, 4]: 102.81 ± 19.33 pg/mL
- Glutathione S-Transferase [2, 4]: 0.56 ± 0.02 ng/mL
- Granulocyte colony-stimulating factor [2, 4]: 5.63 ± 1.12 pg/mL
- Growth hormone [2, 4]: 1.71 ± 0.79 ng/mL
- Haptoglobin [2, 4]: 1.26 ± 0.18 mg/mL
- ICAM-1 [2, 4]: 105.01 ± 13.81 ng/mL
- Immunoglobulin A [2, 4]: 2.14 ± 0.54 mg/mL
- Immunoglobulin E [2, 4]: 28.89 ± 6.20 ng/mL
- Immunoglobulin M [2, 4]: 1.85 ± 0.23 mg/mL
- Insulin [2, 4]: 2.94 ± 0.53 μIU/mL
- Interleukin-1 beta [2, 4]: 0.50 ± 0.14 pg/mL
- Interleukin-1 receptor antagonist [2, 4]: 105.05 ± 14.03 pg/mL
- Interleukin-3 [2, 4]: 0.05 ± 0.01 ng/mL
- Interleukin-4 [2, 4]: 62.87 ± 8.35 pg/mL
- Interleukin-5 [2, 4]: 3.80 ± 0.77 pg/mL
- Interleukin-7 [2, 4]: 51.27 ± 7.39 pg/mL
- Interleukin-8 [2, 4]: 11.26 ± 1.25 pg/mL
- Interleukin-10 [2, 4]: 10.92 ± 2.07 pg/mL
- Interleukin-12p 70 [2, 4]: 59.91 ± 2.15 pg/mL
- Interleukin-13 [2, 4]: 59.52 ± 6.77 pg/mL
- Interleukin-15 [2, 4]: 0.45 ± 0.09 ng/mL
- Interleukin-16 [2, 4]: 404.90 ± 32.28 pg/mL
- Interleukin-18 [2, 4]: 237.45 ± 24.67 pg/mL
- Leptin [2, 4]: 15.00 ± 4.12 ng/mL
- Macrophage inflammatory protein-1α [2, 4]: 106.76 ± 12.39 pg/mL
- Macrophage inflammatory protein-1β [2, 4]: 183.58 ± 36.53 pg/mL
- Matrix metalloproteinase-2 [2, 4]: 2.20 ± 156.40 µg/mL
- Monocyte chemotactic protein-1 [2, 4]: 164.84 ± 16.25 pg/mL
- Monocyte derived chemokine [2, 4]: 426.10 ± 40.45 pg/mL
- Myeloperoxidase [2, 4]: 147.83 ± 22.42 ng/mL
- Myoglobin [2, 4]: 14.94 ± 2.39 ng/mL
- Plasminogen activator inhibitor-1 [2, 4]: 69.86 ± 15.86 ng/mL
- Pregnancy associated plasma protein A [2, 4]: 0.02 ± 0.00 mIU/mL
- Prostatic Acid Phosphatase [2, 4]: 0.17 ± 0.02 ng/mL
- Serum amyloid P-component [2, 4]: 16.61 ± 0.94 µg/mL
- Serum glutamic oxaloacetic transaminase [2, 4]: 9.67 ± 1.64 µg/mL
- Sex hormone binding globulin [2, 4]: 33.29 ± 5.40 nmol/L
- Stem Cell Factor [2, 4]: 351.05 ± 50.76 pg/mL
- T-cell specific protein, RANTES [2, 4]: 16.48 ± 3.62 ng/mL
- Thrombopoietin [2, 4]: 1.40 ± 0.22 ng/mL
- Thyroid Stimulating Hormone [2, 4]: 1.72 ± 0.30 μIU/mL
- Thyroxine Binding Globulin [2, 4]: 46.51 ± 2.84 µg/mL
- Tissue factor [2, 4]: 0.45 ± 0.03 ng/mL
- Tissue inhibitor of metalloproteinases-1 [2, 4]: 87.97 ± 8.38 ng/mL
- Tumor necrosis factor receptor-like 2 [2, 4]: 3.83 ± 0.25 ng/mL
- Tumor necrosis factor α [2, 4]: 3.58 ± 0.68 pg/mL
- Vascular cell adhesion molecule-1 [2, 4]: 508.80 ± 49.79 ng/mL
- Vascular endothelial growth factor [2, 4]: 883.55 ± 268.15 pg/mL
- Von Willebrand Factor [2, 4]: 30.03 ± 3.09 µg/mL
- tumor necrosis factor α (p=0.085), matrix metalloproteinase-9 (p=0.118), serum amyloid P (p=0.188) with supplementation ([2]; not significant): trends for decrease
- Matrix metalloproteinase-2 ([2]; second line so named (r60), End LG, 500 mg/d, 56 days, n = 10, mean ± SEM): 0.07601 ± 0.02246 µg/mL
- Complement 3 (Complement 3; plasma, End LG, 500 mg/d, 56 days, n = 10, mean ± SEM): 1.17 ± 0.05 mg/mL
- decrease of plasma C3 concentration (Complement 3; vs end of placebo treatment, p=0.014): 6.4%
- Specific gravity [3]: 1.02 ± 0.00
